Ends that are not written are not given here.
Assays:
[1] = tested on: serum-borne HCV (genotype 1b); experiment: Replication of serum-borne HCV in hADSC (qRT-PCR of 5′-UTR); format: cell-based; settings: p5 hADSC, peptide 1, 10 and 100 μg/ml (control peptide 100 μg/ml) added 1 h before HCV(+) serum genotype 1b, day 21 post-infection; for viral (5′-UTR) copy numbers in the supernatant: FIG. 1A; for viral (5′-UTR) copy numbers in cell lysates: FIG. 1B
Text: FIG. 1. […] Data are expressed as mean±SD from 3 experiments. […] Data are expressed as mean±SD from 3 experiments.
We next examined the effect of a peptide composed of 14 amino acids DEAQETAVSSHEQD (SEQ ID NO: 1) (designated as DEA), and its derivatives QETAVSSHEQD (SEQ ID NO: 3) (designated as QET) and DEAQETAVSSHEQ (SEQ ID NO: 2) (designated DEA-Q) as prepared in Example 1, in the replication of serum-borne HCV in hADSC and in human primary hepatocytes. […] (SEQ ID NO: 4)^10. […] In contrast, pretreatment with control peptide had no effects.

HCVser (genotype 1b) = settings: for HCV copy numbers: at some concentrations (such as 10 and 100 μg/ml); for HCVser replication in human hepatocytes (cellular 5′-UTR RNA): pretreatment 1 h before HCVser-1b, five days post-infection, FIG. 1C
Experimental: FIG. 1. […] (A and B) Concentrations of 1, 10 and 100 μg/ml of DEA, DEA-Q and QET peptides were added into the culture of p5 hADSC for 1 h before exposure to HCV(+) serum (genotype 1b). HLA-A11 restricted, Epstein-Barr virus-specific peptide epitope […] was used as a control (irrelevant) peptide. On day 21 post-infection, the 5′-UTR copy numbers in the supernatant (A) and cell lysates (B) were quantified by qRT-PCR. Data are expressed as mean±SD from 3 experiments. (C) Concentrations of 1, 10 and 100 μg/ml of DEA, DEA-Q and QET peptides were added into the culture of primary human hepatocytes 1 h before exposure to HCVser (genotype 1b). Five days post-infection, the cellular RNAs were extracted for RT-PCR of 5′-UTR. Data are expressed as mean±SD from 3 experiments.
Human hepatocytes were isolated from the non-tumoural part away from the lesion, as described^11. Hepatocytes were left for 3 days to allow attachment onto plastic wells, and subsequently exposed to the HCVser-1b with or without pretreatment with control peptide, DEA, DEA-Q or QET peptide. Five days post-infection, the cellular RNAs were extracted for RT-PCR of 5′-UTR.

Substance: CSSCSSCPLSK (HLA-A11 restricted, Epstein-Barr virus-specific peptide epitope) [control peptide, reference compound]
- viral (5′-UTR) copy numbers in the supernatant [1]: no effects
- viral (5′-UTR) copy numbers in cell lysates [1]: no effects

Substance: DEAQETAVSSHEQ-OH [DEA-Q, DEAQETAVSSHEQ]
- viral (5′-UTR) copy numbers in the supernatant [1]: significantly reduced
- viral (5′-UTR) copy numbers in cell lysates [1]: significantly reduced
- HCV copy numbers (HCVser (genotype 1b)): under detection limit
- HCVser replication in human hepatocytes (cellular 5′-UTR RNA) (HCVser (genotype 1b)): significantly inhibited

Substance: DEAQETAVSSHEQD-OH [DEA, DEAQETAVSSHEQD]
- viral (5′-UTR) copy numbers in the supernatant [1]: significantly reduced
- viral (5′-UTR) copy numbers in cell lysates [1]: significantly reduced
- HCV copy numbers (HCVser (genotype 1b)): under detection limit
- HCVser replication in human hepatocytes (cellular 5′-UTR RNA) (HCVser (genotype 1b)): significantly inhibited

Substance: QETAVSSHEQD-OH [QET, QETAVSSHEQD]
- viral (5′-UTR) copy numbers in the supernatant [1]: significantly reduced
- viral (5′-UTR) copy numbers in cell lysates [1]: significantly reduced
- HCV copy numbers (HCVser (genotype 1b)): under detection limit
- HCVser replication in human hepatocytes (cellular 5′-UTR RNA) (HCVser (genotype 1b)): significantly inhibited

Reference: patent publication US11254706B2, “Peptide and its derivatives capable of inhibiting replication of hepatitis V virus in human adipose-derived stem cells and hepatocytes” (Inno Bio-Drug Development Limited, priority 2015, dated 2022)
